Converted amounts (≈) assume the structure as drawn.
Assays:
Assay type in all cases: functional
[1] = tested on: Francisella tularensis subsp. holarctica; assay: (§1) Antimicrobial activity against Francisella tularensis subsp. holarctica after 48 hrs by broth microdilution method
[2] = tested on: Francisella tularensis subsp. tularensis; assay: (§2) Antimicrobial activity against Francisella tularensis subsp. tularensis after 48 hrs by broth microdilution method
[3] = as §1
[4] = as §2
[5] = Antimicrobial activity against Francisella tularensis subsp. holarctica LVS after 48 hrs by broth microdilution method

With GENTAMICIN the MIC50 [1] was 0.12 µg/mL, the MIC90 [1] was 0.25 µg/mL and the MIC50 [2] was 0.06 µg/mL. For the same molecule, the MIC90 [2] was 0.12 µg/mL.
Work on `CN[C@@H]1[C@H](O[C@H]2[C@H](O[C@H]3[C@H](O)[C@@H](O)[C@H](N=C(N)N)[C@@H](O)[C@@H]3N=C(N)N)O[C@@H](C)[C@]2(O)C=O)O[C@@H](CO)[C@H](O)[C@H]1O` [STREPTOMYCIN] yielded an MIC50 [3] of 1 µg/mL (≈ 1.72 µM), an MIC90 [3] of 2 µg/mL (≈ 3.44 µM) and an MIC50 [4] of 1 µg/mL (≈ 1.72 µM). For the same molecule, the MIC90 [4] was 2 µg/mL (≈ 3.44 µM).
`O=C(N[C@H](CO)[C@H](O)c1ccc([N+](=O)[O-])cc1)C(Cl)Cl` [CHLORAMPHENICOL] showed an MIC50 [3] of 2 µg/mL (≈ 6.19 µM), an MIC90 [3] of 2 µg/mL (≈ 6.19 µM) and an MIC50 [4] of 1 µg/mL (≈ 3.09 µM). For the same molecule, the MIC90 [4] was 2 µg/mL (≈ 6.19 µM).
Work on `CN(C)[C@@H]1C(O)=C(C(N)=O)C(=O)[C@@]2(O)C(O)=C3C(=O)c4c(O)cccc4[C@@](C)(O)[C@H]3C[C@@H]12` [TETRACYCLINE] yielded an MIC50 [3] of 0.5 µg/mL (≈ 1.13 µM), an MIC90 [3] of 1 µg/mL (≈ 2.25 µM) and an MIC50 [4] of 0.5 µg/mL (≈ 1.13 µM). It also gave an MIC90 [4] of 1 µg/mL (≈ 2.25 µM).
Work on `C[C@H]1COc2c(N3CCN(C)CC3)c(F)cc3c(=O)c(C(=O)O)cn1c23.C[C@H]1COc2c(N3CCN(C)CC3)c(F)cc3c(=O)c(C(=O)O)cn1c23.O` [LEVOFLOXACIN] yielded an MIC50 [3] of 0.03 µg/mL, an MIC90 [3] of 0.06 µg/mL and an MIC50 [4] of 0.03 µg/mL. For the same molecule, the MIC90 [4] was 0.06 µg/mL.
`CC[C@H]1OC(=O)[C@H](C)[C@@H](O[C@H]2C[C@@](C)(OC)[C@@H](O)[C@H](C)O2)[C@H](C)[C@@H](O[C@@H]2O[C@H](C)C[C@H](N(C)C)[C@H]2O)[C@](C)(O)C[C@@H](C)C(=O)[C@H](C)[C@@H](O)[C@]1(C)O` [ERYTHROMYCIN] showed an MIC50 [3] of 2 µg/mL (≈ 2.73 µM), an MIC90 [3] of 2 µg/mL (≈ 2.73 µM) and an MIC [5] greater than 256 µg/mL. It also gave an MIC [4] of 0.5 µg/mL (≈ 0.681 µM), an MIC50 [4] of 0.5 µg/mL (≈ 0.681 µM) and an MIC90 [4] of 0.5 µg/mL (≈ 0.681 µM).
`C[C@H]1c2cccc(O)c2C(=O)C2=C(O)[C@]3(O)C(=O)C(C(N)=O)=C(O)[C@@H](N(C)C)[C@@H]3[C@@H](O)[C@@H]21.O` [DOXYCYCLINE] showed an MIC50 [3] of 1 µg/mL, an MIC90 [3] of 2 µg/mL and an MIC50 [4] of 0.5 µg/mL. It also gave an MIC90 [4] of 1 µg/mL.
`O=C(O)c1cn(C2CC2)c2cc(N3CCNCC3)c(F)cc2c1=O` [CIPROFLOXACIN] gave an MIC50 [3] of 0.03 µg/mL (≈ 0.0905 µM), an MIC90 [3] of 0.06 µg/mL (≈ 0.181 µM) and an MIC50 [4] of 0.015 µg/mL (≈ 0.0453 µM). The MIC90 [4] was 0.03 µg/mL (≈ 0.0905 µM).
